Laboratory results reported in ChEMBL document CHEMBL1155767, “Three new sesquiterpene glycosides from Dendrobium nobile with immunomodulatory activity” (2001).

What was measured:
Assay type in all cases: functional
Lymphocyte [1] = assay: Immunomodulatory activity in concanavalin A-stimulated mouse lymphocytes assessed as proliferative optical density at 0.1 uM after 48 hrs by MTT assay (Rvb=0.47+/-0.01)
Lymphocyte [2] = assay: Immunomodulatory activity in LPS-stimulated mouse lymphocytes assessed as proliferative optical density at 1 uM after 48 hrs by MTT assay (Rvb=0.45+/-0.01)
Lymphocyte [3] = assay: Immunomodulatory activity in LPS-stimulated mouse lymphocytes assessed as proliferative optical density at 10 uM after 48 hrs by MTT assay (Rvb=0.45+/-0.01)
Lymphocyte [4] = assay: Immunomodulatory activity in LPS-stimulated mouse lymphocytes assessed as proliferative optical density at 0.1 uM after 48 hrs by MTT assay (Rvb=0.45+/-0.01)
Lymphocyte [5] = assay: Immunomodulatory activity in concanavalin A-stimulated mouse lymphocytes assessed as proliferative optical density at 1 uM after 48 hrs by MTT assay (Rvb=0.47+/-0.01)
Lymphocyte [6] = assay: Immunomodulatory activity in concanavalin A-stimulated mouse lymphocytes assessed as proliferative optical density at 10 uM after 48 hrs by MTT assay (Rvb=0.47+/-0.01)
Lymphocyte [7] = assay: Immunomodulatory activity in LPS-stimulated mouse lymphocytes assessed as proliferative optical density at 10 uM after 48 hrs by MTT assay (Rvb=0.56+/-0.03)
Lymphocyte [8] = assay: Immunomodulatory activity in concanavalin A-stimulated mouse lymphocytes assessed as proliferative optical density at 0.1 uM after 48 hrs by MTT assay (Rvb=0.80+/-0.02)
Lymphocyte [9] = assay: Immunomodulatory activity in concanavalin A-stimulated mouse lymphocytes assessed as proliferative optical density at 1 uM after 48 hrs by MTT assay (Rvb=0.80+/-0.02)
Lymphocyte [10] = assay: Immunomodulatory activity in LPS-stimulated mouse lymphocytes assessed as proliferative optical density at 1 uM after 48 hrs by MTT assay (Rvb=0.56+/-0.03)
Lymphocyte [11] = assay: Immunomodulatory activity in concanavalin A-stimulated mouse lymphocytes assessed as proliferative optical density at 10 uM after 48 hrs by MTT assay (Rvb=0.80+/-0.02)
Lymphocyte [12] = assay: Immunomodulatory activity in LPS-stimulated mouse lymphocytes assessed as proliferative optical density at 0.1 uM after 48 hrs by MTT assay (Rvb=0.56+/-0.03)

Row | SMILES | OD (Lymphocyte [1]) | OD (Lymphocyte [2]) | OD (Lymphocyte [3]) | OD (Lymphocyte [4]) | OD (Lymphocyte [5]) | OD (Lymphocyte [6]) | OD (Lymphocyte [7]) | OD (Lymphocyte [8]) | OD (Lymphocyte [9]) | OD (Lymphocyte [10]) | OD (Lymphocyte [11]) | OD (Lymphocyte [12])
1 | CC(C)[C@H]1CC[C@]2(C)[C@@H](CO[C@@H]3O[C@H](CO)[C@@H](O)[C@H](O)[C@H]3O)CC[C@@H]2[C@@H]1CO[C@@H]1O[C@H](CO)[C@@H](O)[C@H](O)[C@H]1O [DENDRONOBILOSIDE A] | 0.46 | 0.5 | 0.56 | 0.49 | 0.53 | 0.6 | – | – | – | – | – | –
2 | CC(C)[C@H]1CC[C@@]2(C)[C@H](CC[C@]2(O)CO)[C@@H]1CO[C@@H]1O[C@H](CO)[C@@H](O)[C@H](O)[C@H]1O [DENDRONOBILOSIDE B] | – | – | – | – | – | – | 0.57 | 0.68 | 0.68 | 0.51 | 0.71 | 0.54
3 | C[C@@H]1CC[C@H]2[C@@H]1[C@H]1[C@@H](CC[C@@]2(O)CO[C@@H]2O[C@H](CO)[C@@H](O)[C@H](O)[C@H]2O)[C@@]1(C)CO [DENDROSIDE A] | 0.64 | 0.52 | 0.45 | 0.45 | 0.62 | 0.5 | – | – | – | – | – | –
